# Values of other authors as cited in patent US9320798B2, “Lipid delivery formulations” (Dicerna Pharmaceuticals, Inc., priority 2010, dated 2016).
# Tested on: TLR4
# Details: Numata et al. PNAS USA 107: 320-325; Abate et al., J Lipid Res 51: 334-344
row,SMILES,TLR4 activation
1,"CCCCCCCCCCCCCCCC(=O)OC[C@H](COP(=O)([O-])OCC[N+](C)(C)C)OC(=O)CCCCCCCCCCCCCCC [DPPC, dipalmitoylphosphatidylcholine]",capable of disrupting TLR4 activation
2,"CCCCCCCC/C=C\CCCCCCCC(=O)O[C@H](COC(=O)CCCCCCCCCCCCCCC)COP(=O)(O)OCC(O)CO (some centres unmarked) [POPG, palmitoyl-oleoyl-phosphatidylglycerol]",capable of disrupting TLR4 activation
